Laboratory results as given in patent US11401255B2, “Small molecule activators of Parkin enzyme function” (Mayo Foundation for Medical Education and Research, priority 2016, dated 2022).

Legend:
[1] = test system: HeLa cells; test: Mitochondrial membrane potential (JC-10 assay); format: cell-based, human; details: 5 μM, compared to DMSO control
Procedure: In order to exclude compounds that diminish the mitochondrial membrane potential, a JC-10 assay was used. HeLa cells were plated in 384-well plates and treated with different doses of CCCP or with 5 μM of Compounds 1, 2, 3, 4, and 31 as indicated for 2 h. The JC-10 dye was added to the live cells and cells are stained for 45 minutes. The plates were then measured with a fluorescent plate reader. JC-10 is a mitochondrial dye that emits red fluorescence in the presence of mitochondrial membrane potential. The fluorescence will change to green in the absence of mitochondrial membrane potential. […] Shown are average values of 3 independent experiments. Statistical analysis was performed by one-way ANOVA with Tukey's post-hoc test. ***, p<0.0005.
Mitochondrial depolarization was assessed using a JC10 assay kit (Sigma, MAK159). HeLa Parkin cells were seeded with […] in 20 μL volume into 384-well plates with clear bottom. The following day 5 μL of CCCP or compounds were added as 5× solutions. Equal volume of DMSO served as a negative control. Cells were incubated for 4 h before 12.5 μL of JC10 dye diluted in buffer A was added to the wells. One hour later the reaction was stopped with 12.5 μL of buffer B and the plate was measured immediately on a Spectramax M5 plate reader (Molecular devices) with bottom read using dual fluorescence (green: Ex 485 nm, Em 538 nm, cut-off at 515 nm; red: Ex 544 nm, Em 590 nm, cut-off at 570 nm). Mitochondrial depolarization was assessed by building the green to red ratio.

[2] = target: FLAG-Parkin C431S (Homo sapiens (Human), UniProt O60260, C431S); test: Ub-charging of FLAG-Parkin C431S (western blot); format: cell-based; details: 5 μM or 1 μM, 2 h before 3.5 μM CCCP
Procedure: Another measure of Parkin activation is Ub charging of Parkin. Parkin receives Ub from an E2 enzyme to transfer it to a substrate protein. The Ub is bound by Parkin C431 in an unstable thioester bond. A serine substitution of this amino acid (C431S) leads to a stable oxyester bond. The bound Ub can then be visualized as a band shift in Western blot experiments. HeLa 3×FLAG-Parkin C431S cells were seeded in 12-well plates and allowed to attach overnight. Cells were treated with 5 μM (top panels) or 1 μM (bottom panels) of Compounds 1, 2, 3, 4, and 31 2 h before adding CCCP for another 2 h. 10 μM CCCP was added to positive control (PC) wells whereas all other samples received a low dose concentration of 3.5 μM. Cells were harvested in boiling hot SDS lysis buffer and protein concentration was determined by BCA. Samples were split and left either untreated or were treated with NaOH as indicated. Samples were run on an 8-16% Tris-Glycine gel, blotted onto membranes and probed with antibodies against Flag and pS65-Ub. GAPDH served as a loading control. Band shift indicates Parkin binding to Ubiquitin, which is cleavable with NaOH.
Cells were harvested in RIPA buffer or NP-40 lysis buffer containing protease and phosphatase inhibitors (Complete and PhosStop, Roche Applied Science) with the exception of Parkin Ub charging experiments where preheated (95° C.) SDS lysis buffer (50 mM Tris pH 7.6, 150 mM NaCl, 1% SDS) was used. Concentration of cell lysates was determined with bicinchoninic acid (Pierce Biotechnology). For Parkin Ub charging experiments, aliquots of lysates were treated with […] for 1 h at 37° C. pH was neutralized with equinormal HCl.
Protein was subjected to SDS-PAGE using 4-20% or 8-16% Tris-Glycine gels (Invitrogen) and transferred onto polyvinylidene fluoride (PVDF) (Millipore). Membranes were incubated with primary antibodies overnight at 4° C. followed by HRP-conjugated secondary antibodies (1:10,000; Jackson ImmunoResearch Laboratories). Primary antibodies used: beta III tubulin (rabbit, 1:1000, CST, #5568, CST), FLAG (mouse, 1:250,000, Sigma, F3165), GAPDH (mouse, 1:100,000-500,000, Meridian Life science, H86504M), GST (1:10,000, Sigma, G7781), MFN1 (mouse, 1:5,000, Abcam, ab57602), MFN2 (mouse, 1:5,000, Abcam, ab56889), Parkin (mouse, 1:2,000, Cell Signaling, #4211), pSer65-Ub (rabbit, 1:15,000, in-house (Fiesel et al., EMBO Reports (2015) 16:1114-30; Fiesel et al., (2015) Autophagy 11:2125-2126)), TOM70 (rabbit, 1:5,000, Proteintech, 14528-1-AP), UBE2L3 (rabbit, 1:10,000, ProteinTech, 14415-1-AP), VDAC1 (mouse, 1:5,000, Abcam, ab14734), vinculin (mouse, 1:100,000, Sigma, V9131).
HeLa 3×FLAG-Parkin C431S cells were seeded in 6-well plates and allowed to attach overnight. Cells were treated with […] of compounds 5, 21-28, 32, 33, or 43-46 2 h before adding CCCP for another 2 h. 10 VM CCCP was added to positive control (PC) wells, 3.5 μM CCCP to compound (+) and negative control (NC) wells. […] Cells were harvested in boiling hot SDS lysis buffer and protein concentration was determined by BCA. Samples were split and left either untreated or were treated with NaOH as indicated. Samples were run on an 8-16% Tris-Glycine gel, blotted onto membranes and probed with antibodies against Flag. Vinculin served as a loading control. Band shift indicates Parkin binding to Ubiquitin, which is cleavable with NaOH (FIG. 21).

Structure (SMILES) | effect on JC-10 (mitochondrial depolarization) [1] | Ub-charging of FLAG-Parkin C431S (WB) [2]
Cc1nc2c(c(N3CCCN(Cc4ccccc4)CC3)n1)CCCC2 [Compound 31] | significantly increased depolarization of mitochondria | enhanced Ub-charging
CC(C)(C)Sc1ccc(NC(=O)Cn2ccnc2)cc1 [Compound 3] | did not show an effect | enhanced Ub-charging
O=C(Cn1cnc2c1CCCC2)Nc1ccc(-c2ccccc2)cc1 [Compound 1] | did not show an effect | enhanced Ub-charging
O=C(Cn1ccnc1-c1ccccn1)Nc1ccc(-c2ccccc2)cc1 [Compound 4] | did not show an effect | enhanced Ub-charging
CC(C)c1nccn1CC(=O)Nc1ccc(-c2ccccc2)cc1 [Compound 2] | did not show an effect | enhanced Ub-charging
